# According to patent publication US20190209548A1, “LINKED DIARYL COMPOUNDS WITH ANTICANCER PROPERTIES AND METHODS OF USING THE SAME” (University of Maryland, College Park, priority 2014, published 2019):
# Experiments:
# [1] = test system: F21T; test: FRET melting assay, F21T; assay type: binding; conditions: dual-labeled DNA 0.2 μM, DMZ analogues 1 μM, potassium cacodylate 60 mM pH 7.2
# Protocol: (§1) Fluorescence resonance energy transfer (FRET) assay to determine Tm in absence and presence of ligands. Dual-labelled DNA was diluted from stock (50 μM) to 400 nM in 60 mM potassium cacodylate buffer (pH 7.2) and then annealed by heating at 85° C. for 10 min followed by cooling to room temperature in the heating block. Compounds were diluted from stock (20 mM in DMSO) to 2 μM in 60 mM cacodylate buffer (pH 7.2). 25 μL annealed DNA was added to 96-well plate followed by 25 μL diluted compounds. The sequences of labelled oligonucleotides were as follows: F21T 21-mer (5′-FAM-GGGTTAGGGTTAGGGTTAGGG-TAMRA-3′) (SEQ ID NO:11), c-kit2 26-mer (5′-FAM-CCCGGGCGGGCGCGAGGGAGGGGAGG-TAMRA-3′) (SEQ ID NO:12), k-RAS21R 21-mer (5′-FAM-AGGGCGGTGTGGGAAGAGGGA-TAMRA-3′) (SEQ ID NO:13), c-MYC 22-mer (5′-FAM-TGAGGGTGGGTAGGGTGGGTAA-TAMRA-3′) (SEQ ID NO:14) and duplex 26-mer (5′-FAM-TATAGCTATATTTTTTTATAGCTATA-TAMRA-3′) (SEQ ID NO: 15). Measurements were made in triplicate by using a LightCycler 480 System RT-PCR machine (Roche) and average values were reported. Fluorescence readings were made with excitation at 450-495 nm and detection at 515-545 nm, taken at intervals of 1.2° C./min in the range 25° C. to 95° C.
# [2] = test system: c-MYC; test: FRET melting assay, c-MYC; assay type: binding; conditions: dual-labeled DNA 0.2 μM, DMZ analogues 1 μM, potassium cacodylate 60 mM pH 7.2
# Protocol: as §1
# [3] = test system: c-kit2; test: FRET melting assay, c-kit2; assay type: binding; conditions: dual-labeled DNA 0.2 μM, DMZ analogues 1 μM, potassium cacodylate 60 mM pH 7.2
# Protocol: as §1
# [4] = test system: k-RAS21R; test: FRET melting assay, k-RAS21R; assay type: binding; conditions: dual-labeled DNA 0.2 μM, DMZ analogues 1 μM, potassium cacodylate 60 mM pH 7.2
# Protocol: as §1
# [5] = test system: duplex; test: FRET melting assay, duplex DNA; assay type: binding; conditions: dual-labeled DNA 0.2 μM, DMZ analogues 1 μM, potassium cacodylate 60 mM pH 7.2
# Protocol: as §1
# [6] = test system: OVCAR-3; test: WST-1 IC50 determination, OVCAR-3; assay type: cell-based, human; conditions: 72 hours, WST-1; for IC50: read-out: Anticancer activity IC50 ± SD, OVCAR-3
# Protocol: (§2) Cell lines and culturing. The following human cell lines were purchased from ATCC (ATCC, Manassas, Va.): prostate cancer cells (PC-3), triple negative breast cancer cells (MDA-MB-231), ovarian cancer cells (OVCAR-3), normal bone marrow (NBM) and normal fibroblast cells (MCR5A). MDA-MB-231 cells were grown at 37° C. with 5% CO2 atmosphere with DMEM (Life technologies, Carlsbad, Calif.) supplemented with heat-inactivated 10% (V/V) fetal bovine serum. OVCAR-3 and PC-3 cells were grown at 37° C. with 5% CO2 atmosphere with RPMI (Life technologies, Carlsbad, Calif.) supplemented with heat-inactivated 10% (V/V) fetal bovine serum. Cell lines were grown and maintained according to ATCC recommendations.
# (§3) IC50 determination. Cell lines were seeded into 96-well plates the afternoon prior to treatment. Cell seeding number was determined by growing cells in log phase growth during drug treatment. Approximately 18 hours later, compounds were semi-serially diluted in dimethyl sulfoxide (DMSO) and then growth medium, and added to cells. Plates were incubated for 72 hours prior to addition of WST-1 (Promega, Madison Wis.). Plates were read after 4 additional hours of incubation at 37° C. using a Bio-Tek Synergy HT plate reader (Bio-Tek, Winooski, Vt.). Data was analyzed, graphed and IC50s generated using GraphPad Prism Software (Graphpad, La Jolla, Calif.).
# (§4) IC50 determination: For the determination of IC50 for the azolamide class, the same protocol as described previously was followed.
# [7] = test system: PC-3; test: WST-1 IC50 determination, PC-3; assay type: cell-based, human; conditions: 72 hours, WST-1; for IC50: read-out: Anticancer activity IC50 ± SD, PC-3
# Protocol: as §2, §3, §4
# [8] = test system: MDA-MB-231; test: WST-1 IC50 determination, MDA-MB-231; assay type: cell-based, human; conditions: 72 hours, WST-1; for IC50: read-out: Anticancer activity IC50 ± SD, MDA-MB-231
# Protocol: as §2, §3, §4
Structure (SMILES),ΔTm F21T [1] [°C],ΔTm c-MYC [2] [°C],ΔTm c-kit2 [3] [°C],ΔTm k-RAS21R [4] [°C],ΔTm duplex [5],"Anticancer activity IC50 ± SD, OVCAR-3 [6]","Anticancer activity IC50 ± SD, PC-3 [7]","Anticancer activity IC50 ± SD, MDA-MB-231 [8]",IC50 [6] [µM],IC50 [7] [µM],IC50 [8] [µM]
N=C(N)c1ccc(N=NNc2ccncc2)cc1 [DMZ14],4.20 ± 0.00,6.97 ± 0.26,6.58 ± 0.78,2.19 ± 0.26,NE (NE means not effective binding (ΔTm < 1° C.)),NE (NE means not effective. Cell viability was the same or greater than 75% of the DMSO control at 20 μM compound concentration.),NE (NE means not effective. Cell viability was the same or greater than 75% of the DMSO control at 20 μM compound concentration.),NE (NE means not effective. Cell viability was the same or greater than 75% of the DMSO control at 20 μM compound concentration.),–,–,–
N=C(N)c1ccc(N=NNc2cccc(C#Cc3ccccc3)c2)cc1 [DMZ7],4.20 ± 0.00,7.33 ± 0.26,6.40 ± 0.26,2.56 ± 0.00,NE (NE means not effective binding (ΔTm < 1° C.)),–,–,–,6.5 ± 2.1,5.8 ± 0.2,9.5 ± 1.3
N=C(N)c1ccc(N=NNc2cccc(C#Cc3ccccn3)c2)cc1 [DMZ8],4.75 ± 0.00,9.32 ± 0.00,8.04 ± 0.26,14.62 ± 0.45,NE (NE means not effective binding (ΔTm < 1° C.)),–,–,–,10.7 ± 1.5,10.4 ± 1.4,14.4 ± 0.9
C#Cc1ccc(NN=Nc2ccc(C(=N)N)cc2)cc1 [DMZ3],4.57 ± 0.26,7.13 ± 0.45,5.30 ± 0.26,5.66 ± 0.51,NE (NE means not effective binding (ΔTm < 1° C.)),–,–,–,11.8 ± 1.7,22.5 ± 8.8,30.2 ± 1.8
N=C(N)c1ccc(N=NNc2ccccc2C#Cc2ccccc2)cc1 [DMZ12],4.20 ± 0.00,7.15 ± 0.00,5.12 ± 0.26,2.19 ± 0.26,NE (NE means not effective binding (ΔTm < 1° C.)),–,–,–,8.1 ± 0.5,5.3 ± 0.2,5.1 ± 0.4
"N=C(N)c1ccc(N)cc1 [4-aminobenzamidine, reference compound]",–,–,–,–,–,NE (NE means not effective. Cell viability was the same or greater than 75% of the DMSO control at 20 μM compound concentration.),NE (NE means not effective. Cell viability was the same or greater than 75% of the DMSO control at 20 μM compound concentration.),NE (NE means not effective. Cell viability was the same or greater than 75% of the DMSO control at 20 μM compound concentration.),–,–,–
"Nc1cccc(C#Cc2ccc(F)cc2)c1 [compound 15, reference compound]",–,–,–,–,–,NE (NE means not effective. Cell viability was the same or greater than 75% of the DMSO control at 20 μM compound concentration.),NE (NE means not effective. Cell viability was the same or greater than 75% of the DMSO control at 20 μM compound concentration.),NE (NE means not effective. Cell viability was the same or greater than 75% of the DMSO control at 20 μM compound concentration.),–,–,–
COc1ccc(C#Cc2cccc(NN=Nc3ccc(C(=N)N)cc3)c2)cc1 [DMZ10],4.39 ± 0.26,8.06 ± 0.26,5.48 ± 0.00,1.65 ± 0.26,NE (NE means not effective binding (ΔTm < 1° C.)),–,–,–,5.2 ± 0.4,5 ± 0.9,5.5
N#Cc1cccc(NN=Nc2ccc(C(=N)N)cc2)c1 [DMZ4],4.57 ± 0.26,6.94 ± 0.26,6.22 ± 0.26,2.00 ± 0.45,NE (NE means not effective binding (ΔTm < 1° C.)),NE (NE means not effective. Cell viability was the same or greater than 75% of the DMSO control at 20 μM compound concentration.),NE (NE means not effective. Cell viability was the same or greater than 75% of the DMSO control at 20 μM compound concentration.),NE (NE means not effective. Cell viability was the same or greater than 75% of the DMSO control at 20 μM compound concentration.),–,–,–
C#Cc1cccc(NN=Nc2ccc(C(=N)N)cc2)c1 [DMZ5],4.39 ± 0.26,7.51 ± 0.26,5.48 ± 0.45,6.39 ± 0.89,NE (NE means not effective binding (ΔTm < 1° C.)),–,–,–,16.8 ± 3.1,18 ± 5.7,20.5 ± 4.2
N=C(N)c1ccc(N=NNc2cccc(-c3ccccc3)c2)cc1 [DMZ6],4.57 ± 0.26,7.49 ± 0.26,5.48 ± 0.45,4.20 ± 0.90,NE (NE means not effective binding (ΔTm < 1° C.)),NE (NE means not effective. Cell viability was the same or greater than 75% of the DMSO control at 20 μM compound concentration.),NE (NE means not effective. Cell viability was the same or greater than 75% of the DMSO control at 20 μM compound concentration.),NE (NE means not effective. Cell viability was the same or greater than 75% of the DMSO control at 20 μM compound concentration.),–,–,–
C#Cc1ccccc1NN=Nc1ccc(C(=N)N)cc1 [DMZ11],4.20 ± 0.00,8.77 ± 0.00,7.68 ± 0.00,2.19 ± 0.26,NE (NE means not effective binding (ΔTm < 1° C.)),–,–,–,> 25,> 50,23.2
